Reference: patent US10662204B2 (PFIZER INC., priority 2018, dated 2020)

What was measured:
[1] = molecular target: KRAS G12C (Homo sapiens, UniProt P01116, G12C); assay: Cell Activity Assay: accumulation of GDP-bound KRAS G12C in MIAPaCa-2 cells (Raf-1 RBD capture, MSD readout); format: cell-based; parameters: endogenous in cells; host or cells: MIAPaCa-2; details: 6 hours, assay limit is 30.00
Method in brief: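 IC50 came from a 4-parameter fit of Ras signal normalized between DMSO and full-inhibition controls. Readout: lysate GTP-Ras bound to immobilized Raf-1 RBD, quantified with pan-Ras antibody and MSD electrochemiluminescence. Lysates derived from MIAPaCa-2 cells treated 6 h with serially diluted compound, 0.3% DMSO.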

[2] = molecular target: T1, GDP-loaded KRAS (1-169) G12C, C51S, C80L, C118S (Homo sapiens, UniProt P01116, C118S/C51S/C80L/G12C); assay: Mass Spectrometry Reactivity Assay (MSRA): covalent adduct of compound and KRAS G12C, Percent Modification; format: binding; details: for MSRA (% modification) 10 μM 0.50 hr / MSRA (% modification) 10 μM 0.25 hr: 10 μM compound; for MSRA (% modification) 5.0 μM 0.25 hr / MSRA (% modification) 5.0 μM 0.017 hr: 5.0 μM compound
T1 construct: GDP-loaded KRAS (1-169) G12C, C51S, C80L, C118S
Method in brief: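 Covalent labelling is measured by intact mass: deconvoluted modified and unmodified peak intensities yield percent modification. Compound, usually 5 μM or 10 μM final, reacts at room temperature with 5 μM GDP-bound KRAS G12C (1-169, C51S/C80L/C118S) in Hepes pH 7.5/NaCl/glycerol, sampled at 1, 15, 30, 60 min.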

Structure (SMILES)	IC50 [1]	MSRA (% modification) 10 μM 0.50 hr [2]	MSRA (% modification) 5.0 μM 0.25 hr [2]	MSRA (% modification) 5.0 μM 0.017 hr [2]	MSRA (% modification) 10 μM 0.25 hr [2]
C=CC(=O)N1CCN(c2ncnc3c(Oc4c(Cl)c(C)cc5[nH]ncc45)nc(Cl)cc23)CC1 [Example 15A, 1-(4-{6-chloro-8-[(5-chloro-6-methyl-1H-indazol-4-yl)oxy]pyrido[3,4-d]pyrimidin-4-yl}piperazin-1-yl)prop-2-en-1-one]	0.468 µM	67%	–	–	–
C=CC(=O)N1CCN(c2nc(OC[C@@H]3CCCN3C)nc3c(Oc4c(Cl)ccc5[nH]ncc45)cccc23)CC1 [Example 02L, 1-[4-(8-[(5-chloro-1H-indazol-4-yl)oxy]-2-{[(2S)-1-methylpyrrolidin-2-yl]methoxy}quinazolin-4-yl)piperazin-1-yl]prop-2-en-1-one]	0.146 µM	–	31%	–	–
C=CC(=O)N1CCN(c2nc(Oc3cccnc3C(F)(F)F)nc3c(Oc4c(Cl)c(F)cc5[nH]ncc45)nccc23)CC1 [Example 07I, 1-[4-(8-[(5-chloro-6-fluoro-1H-indazol-4-yl)oxy]-2-{[2-(trifluoro-methyl)pyridin-3-yl]oxy}pyrido [3,4-s]pyrimidin-4-yl)piperazin-1-yl]prop-2-en-1-one]	0.331 µM	–	46%	–	–
C=CC(=O)N1CCN(c2nc(OC[C@H]3CCCN3C(C)=O)nc3c(Oc4c(Cl)c(F)cc5[nH]ncc45)nccc23)CC1 [Example 04J, 1-[4-(2-{[(2R)-1-acetylpyrrolidin-2-yl]methoxy}-8-[(5-chloro-6-fluoro-1H-indazol-4-yl)oxy]pyrido[3,4-d]pyrimidin-4-yl)piperazin-1-yl]prop-2-en-1-one]	0.989 µM	–	64%	–	–
C=CC(=O)N1CCN(c2ncnc3c(Cc4c(C)ccc5[nH]ncc45)cccc23)CC1 [Example 01D, 1-(4-{8-[(5-methyl-1H-indazol-4-yl)methyl]quinazolin-4-yl}piperazin-1-yl)prop-2-en-1-one]	6.69 µM	37%	–	–	–
C=CC(=O)N1CCN(c2nc(OCC3CC(=O)N(C)C3)nc3c(Oc4c(Cl)c(F)cc5[nH]ncc45)nccc23)CC1 (stereo not drawn) [Example 03J, 4-[({4-(4-acryloylpiperazin-1-yl)-8-[(5-chloro-6-fluoro-1H-indazol-4-yl)oxy]pyrido[3,4-d]pyrimidin-2-yl}oxy)methyl]-1-methylpyrrolidin-2-one]	0.855 µM	–	77%	–	–
C=CC(=O)N1CCN(c2nc(NCCC(=O)N(C)C)nc3c(Oc4c(C)ccc5[nH]ncc45)cccc23)CC1 [Example 06F, N^3-{4-(4-acryloylpiperazin-1-yl)-8-[(5-methyl-1H-indazol-4-yl)oxy]quinazolin-2-yl}-N,N-dimethyl-β-alaninamide]	3.24 µM	46%	–	–	–
C=CC(=O)N1CCN(c2nc(OC[C@H]3COCCN3C)nc3c(Oc4c(Cl)c(F)cc5[nH]ncc45)nccc23)CC1 [Example 10H, 1-[4-(8-[(5-chloro-6-fluoro-1H-indazol-4-yl)oxy]-2-{[(3R)-4-methylmorpholin-3-yl]methoxy}pyrido[3,4-d]pyrimidin-4-yl)piperazin-1-yl]prop-2-en-1-one]	0.965 µM	68%	47%	–	–
C=CC(=O)N1CCN(c2nc(OC[C@H]3CCCO3)nc3c(Oc4c(Cl)c(F)cc5[nH]ncc45)nccc23)CC1 [Example 06H, 1-(4-{8-[(5-chloro-6-fluoro-1H-indazol-4-yl)oxy]-2-[(2R)-tetrahydrofuran-2-ylmethoxy]pyrido[3,4-d]pyrimidin-4-yl}piperazin-1-yl)prop-2-en-1-one]	0.611 µM	–	48%	–	60%
C=CC(=O)N1CCN(c2ncnc3c(Oc4c(C)ccc5[nH]ncc45)cc(C#N)cc23)CC1 [Example 14C]	27.8 µM	20%	–	–	–
C=CC(=O)N1CCN(c2nc(OC[C@@H]3CC(F)(F)CN3C)nc3c(Oc4c(C)ccc5[nH]ncc45)nccc23)CC1 [Example 07B, 1-[4-(2-{[(2S)-4,4-difluoro-1-methylpyrrolidin-2-yl]methoxy}-8-[(5-methyl-1H-indazol-4-yl)oxy]pyrido[3,4-d]pyrimidin-4-yl)piperazin-1-yl]prop-2-en-1-one]	6.18 µM	–	–	–	15%

The next lines start with the values.

IC50 [1]	MSRA (% modification) 10 μM 0.50 hr [2]	MSRA (% modification) 5.0 μM 0.25 hr [2]	MSRA (% modification) 5.0 μM 0.017 hr [2]	MSRA (% modification) 10 μM 0.25 hr [2]	Structure (SMILES)
29.6 µM	7%	–	–	–	C=CC(=O)N1CCN(c2ncnc3c(Oc4c(F)c(C)c(F)c5[nH]ncc45)nccc23)CC1 [Example 16A, 1-(4-{8-[(5,7-difluoro-6-methyl-1H-indazol-4-yl)oxy]pyrido[3,4-d]pyrimidin-4-yl}piperazin-1-yl)prop-2-en-1-one]
0.016 µM	–	–	44%	–	C=CC(=O)N1CCN(c2nc(O[C@@H]3CN(C)C[C@H]3C)nc3c(Oc4c(Cl)c(F)cc5[nH]ncc45)nc(Cl)cc23)CC1 (racemic) [Example 32G, rac-1-[4-(6-chloro-8-[(5-chloro-6-fluoro-1H-indazol-4-yl)oxy]-2-{[(3S,4R)-1,4-dimethylpyrrolidin-3-yl]oxy}pyrido[3,4-d]pyrimidin-4-yl)piperazin-1-yl]prop-2-en-1-one]
> 30 µM	13%	–	–	–	C=CC(=O)N1CCN(c2nc(NC3CNC(=O)C3)nc3c(Oc4c(C)ccc5[nH]ncc45)cccc23)CC1 (stereo not drawn) [Example 15F, 4-({4-(4-acryloylpiperazin-1-yl)-8-[(5-methyl-1H-indazol-4-yl)oxy]quinazolin-2-yl}amino)pyrrolidin-2-one]
0.285 µM	–	–	70%	–	C=CC(=O)N1CCN(c2nc(O[C@@H]3CN(CCO)C[C@H]3OC)nc3c(Oc4c(Cl)c(F)cc5[nH]ncc45)nccc23)CC1 [Example 46I, 1-[4-(8-[(5-chloro-6-fluoro-1H-indazol-4-yl)oxy]-2-{[(3R,4R)-1-(2-hydroxy-ethyl)-4-methoxy-pyrrolidin-3-yl]oxy}pyrido [3,4-d]pyrimidin-4-yl)piperazin-1-yl]prop-2-en-1-one]
0.026 µM	–	–	69%	–	C=CC(=O)N1CCN(c2nc(O[C@@H]3CN(CC)C[C@H]3OC)nc3c(Oc4c(Cl)c(F)cc5[nH]ncc45)nccc23)CC1 [Example 17H, 1-[4-(8-[(5-chloro-6-fluoro-1H-indazol-4-yl)oxy]-2-{[(3R,4R)-1-ethyl-4-methoxypyrrolidin-3-yl]oxy}pyrido[3,4-d]pyrimidin-4-yl)piperazin-1-yl]prop-2-en-1-on]
0.247 µM	67%	–	–	–	C=CC(=O)N1CCN(c2ncnc3c(Oc4c(Cl)c(Cl)cc5[nH]ncc45)nc(Cl)cc23)CC1 [Example 30A, 1-(4-{6-chloro-8-[(5,6-dichloro-1H-indazol-4-yl)oxy]pyrido[3,4-d]pyrimidin-4-yl}piperazin-1-yl)prop-2-en-1-one]
0.155 µM	–	–	24%	–	C=CC(=O)N1CCN(c2nc(O[C@@H]3CN(C)C[C@H]3OC)nc3c(Oc4c(Cl)c(F)cc5[nH]ncc45)nccc23)C[C@H]1C [Example 35I, 1-[(2R)-4-(8-[(5-chloro-6-fluoro-1H-indazol-4-yl)oxy]-2-{[(3R,4R)-4-methoxy-1-methyl-pyrrolidin-3-yl]oxy}pyrido [3,4-d]pyrimidin-4-yl)-2-methyl-piperazin-1-yl]prop-2-en-1-one]
4.26 µM	–	–	–	64%	C=CC(=O)N1C[C@H](C)N(c2ncnc3c(Oc4c(Cl)c(F)cc5[nH]ncc45)nc(Cl)cc23)C[C@H]1C [Example 35A, 1-[(2R,5S)-4-{6-chloro-8-[(5-chloro-6-fluoro-1H-indazol-4-yl)oxy]pyrido[3,4-d]pyrimidin-4-yl}-2,5-dimethylpiperazin-1-yl]prop-2-en-1-one]
0.003 µM	–	–	82%	–	C=CC(=O)N1CCN(c2nc(Oc3cccc4c3CCN(C(C)C)C4)nc3c(Oc4c(Cl)c(F)cc5[nH]ncc45)nccc23)CC1 [Example 19I, 1-[4-(8-[(5-chloro-6-fluoro-1H-indazol-4-yl)oxy]-2-{[2-(propan-2-yl)-1,2,3,4-tetrahydro-isoquinolin-5-yl]oxy}pyrido [3,4-d]pyrimidin-4-yl)piperazin-1-yl]prop-2-en-1-one]
